≈ marks a conversion by molar mass, not a printed value.
Tests used:
Type in all cases: functional
Helicobacter pylori [1] = experiment: Antibacterial activity against Helicobacter pylori NCTC-11637 after 24 hrs; conditions: NCTC-11637, 24 h
Helicobacter pylori [2] = experiment: Antibacterial activity against Helicobacter pylori NCTC-11637 after 5 days by serial dilution method
Helicobacter pylori [3] = experiment: Antibacterial activity against Helicobacter pylori NCTC-11637 assessed as zone of inhibition at 0.5 ug/disk; conditions: read-out: IZ
Helicobacter pylori [4] = experiment: Antibacterial activity against Helicobacter pylori NCTC-11637 assessed as zone of inhibition at 500 ug/disk; conditions: read-out: IZ
Helicobacter pylori [5] = experiment: Antibacterial activity against Helicobacter pylori assessed NCTC-11637 as zone of inhibition at 2 ug/disk; conditions: read-out: IZ
Helicobacter pylori [6] = experiment: Antibacterial activity against Helicobacter pylori NCTC-11637 assessed as zone of inhibition at 10 ug/disk; conditions: read-out: IZ
Helicobacter pylori [7] = experiment: Antibacterial activity against Helicobacter pylori assessed NCTC-11637 as zone of inhibition at 0.02 ug/disk; conditions: read-out: IZ
Helicobacter pylori [8] = experiment: Antibacterial activity against Helicobacter pylori assessed NCTC-11637 as zone of inhibition at 0.01 ug/disk; conditions: read-out: IZ
[9] = Helicobacter pylori, 120 h, read-out: MBC

| MIC (Helicobacter pylori [1]) | Structure (SMILES) | MBC (Helicobacter pylori [2]; [9]) | further results |
| --- | --- | --- | --- |
| 1.25 µg/mL (≈ 2.7 µM) | COc1cc(OC)c2c(c1)C(CCCCCCCCCC(CCC(C)=O)OC(C)=O)OC2=O (stereo not drawn) | 2.5 µg/mL (≈ 5.4 µM) | zone of inhibition at 0.5 µg/disc (Helicobacter pylori [3]): 15 mm |
| > 100 µg/mL | COc1cc(OC)c2ccn(CCCCCCCCCC(CCC(C)=O)OC(C)=O)c2c1 (stereo not drawn) | > 100 µg/mL |  |
| > 100 µg/mL | COc1cc(OC)c2ccn(CCCCCCCCCCCCC(C)O)c2c1 (stereo not drawn) | > 100 µg/mL |  |
| 12.5 µg/mL (≈ 30.7 µM) | COc1cc(OC)c2c(c1)C(CCCCCCCCCCCCC(C)O)OC2=O (stereo not drawn) | 50 µg/mL (≈ 123 µM) | zone of inhibition at 500 µg/disc (Helicobacter pylori [4]): 15 mm |
| 0.3 µg/mL (≈ 0.717 µM) | COc1cc(OC)c2c(c1)[C@@H](CCCCCC[C@H]1CC[C@@]3(CC[C@H](C)O3)O1)OC2=O | 0.3 µg/mL (≈ 0.717 µM) |  |
| 2.5 µg/mL (≈ 5.97 µM) | COc1cc(OC)c2c(c1)C(CCCCCCCCCC(=O)CCC(C)=O)OC2=O (stereo not drawn) | 5 µg/mL (≈ 11.9 µM) | zone of inhibition at 2 µg/disc (Helicobacter pylori [5]): 15 mm |
| 5 µg/mL (≈ 15.1 µM) | COc1cc(OC)c2ccn(CCCCCCCCC(C)=O)c2c1 | 10 µg/mL (≈ 30.2 µM) |  |
| 0.125 µg/mL (≈ 0.299 µM) | COc1cc(OC)c2c(c1)[C@@H](CCCCC[C@H]1CCC[C@]3(CC[C@H](C)O3)O1)OC2=O | 0.125 µg/mL (≈ 0.299 µM) |  |

The remaining lines, values behind:

| Structure (SMILES) | MIC (Helicobacter pylori [1]) | MBC (Helicobacter pylori [2]; [9]) | further results |
| --- | --- | --- | --- |
| COc1cc(OC)c2c(c1)[C@@H](CCCCC[C@H]1CCC[C@]3(CC[C@@H](C)O3)O1)OC2=O | 0.5 µg/mL (≈ 1.19 µM) | 1 µg/mL (≈ 2.39 µM) |  |
| COc1cc(OC)c2ccn(CCCCCCCCCCCCC(C)=O)c2c1 | 50 µg/mL (≈ 129 µM) | 50 µg/mL (≈ 129 µM) |  |
| COc1cc(OC)c2ccn(CCCCCCCCCC(=O)CCC(C)=O)c2c1 | 10 µg/mL (≈ 24.9 µM) | 20 µg/mL (≈ 49.8 µM) |  |
| COc1cc(OC)c2ccn(CCCC3CCCC4(CCCCO4)O3)c2c1 (stereo not drawn) | 20 µg/mL (≈ 53.5 µM) | 40 µg/mL (≈ 107 µM) |  |
| COc1cc(OC)c2c(c1)[C@H](CCCCCC[C@H]1CC[C@]3(CC[C@H](C)O3)O1)OC2=O | 20 µg/mL (≈ 47.8 µM) | 100 µg/mL (≈ 239 µM) |  |
| COc1cc(OC)c2c(c1)[C@H](CCCCCC[C@H]1CC[C@@]3(CC[C@H](C)O3)O1)OC2=O | 20 µg/mL (≈ 47.8 µM) | 100 µg/mL (≈ 239 µM) |  |
| COc1cc(OC)c2c(c1)[C@@H](CCCCCC[C@H]1CC[C@]3(CC[C@H](C)O3)O1)OC2=O | 0.3 µg/mL (≈ 0.717 µM) | 0.3 µg/mL (≈ 0.717 µM) |  |
| COc1cc(OC)c2c(c1)C(CCCCCCCCCCCCC(C)=O)OC2=O (stereo not drawn) | 10 µg/mL (≈ 24.7 µM) | 10 µg/mL (≈ 24.7 µM) | zone of inhibition at 10 µg/disc (Helicobacter pylori [6]): 15 mm |
| COc1cc(OC)c2c(c1)C(CCCCCCC1CCC3(CCC(C)O3)O1)OC2=O (stereo in doubt) | 0.02 µg/mL (≈ 0.0478 µM) |  | MBC (Helicobacter pylori [2]): 0.2 µg/mL (≈ 0.478 µM) |
| COc1cc(OC)c2c(c1)C(CCCCCCC1CCC3(CCC(C)O3)O1)OC2=O (stereo in doubt; 5) |  |  | zone of inhibition at 0.02 µg/disc (Helicobacter pylori [7]): 15 mm; MBC (Helicobacter pylori [2]): 0.02 µg/mL (≈ 0.0478 µM) |
| COc1cc(O)cc2c1C(=O)OC2CCCCCC1CCCC2(CCC(C)O2)O1 (stereo not drawn) [SPIROLAXINE] | 0.2 µg/mL (≈ 0.494 µM) | > 2 µg/mL | zone of inhibition at 0.01 µg/disc (Helicobacter pylori [8]): 15 mm |

— ChEMBL document CHEMBL1150341, “Anti-Helicobacter pylori activity of derivatives of the phthalide-containing antibacterial agents spirolaxine methyl ether, CJ-12,954, CJ-13,013, CJ-13,102, CJ-13,104, CJ-13,108 and CJ-13,015” (2008)
